The target in data set [1] is T1, HA-EGFP-HaloTag fusion protein (Rhodococcus rhodochrous, UniProt P0A3G2, C176G/H272F/K175M/Y273L).
T1 construct: The HaloTag protein was obtained from pHT2 vector (Promega); expressed in transfected cells
The experiment in a line: Immunoblotting of HA-EGFP-HaloTag in Flp-In 293 cells. The format is cell-based. How it is done:
Flp-In 293 cells expressing HA-EGFP-HaloTag were treated with indicated concentrations of HyT13 for 24 hours. The lysates were probed with anti-HA and anti-β-actin antibodies, with β-actin serving as a loading control. Shown is quantification of three separate experiments, with error bars representing SEM.
Flp-In 293 cells expressing HA-EGFP-HaloTag cells were treated for the indicated times with 1 μM HyT13 and the lysates were probed with anti-HA and anti-β-actin antibodies. The rightmost sample was treated with HyT13 for 24 hours, after which HyT13-free media was provided for 24 hours. Shown is quantification of three separate experiments, with error bars representing SEM.
The indicated cells were washed twice with cold PBS and the cells were lysed in lysis buffer (1×PBS, 1% NP-40, 1 mM EDTA, 40 mM HEPES) with protease inhibitors. The lysates were cleared by centrifugation at 10,000 g for 5 min. The total protein concentration was determined by Bradford assay and 50 μg of protein was loaded onto an 8% Bis-Tris gel. To solubilize polyubiquitinated and aggregated proteins upon proteasome inhibition^42 samples generated for FIG. 12d were lysed with a SDS lysis buffer (1×PBS, 1% NP-40, 1% SDS, 1% sodium deoxycholate, 1 mM EDTA, 40 mM HEPES) with protease inhibitors. The blots were processed by standard procedures with indicated antibodies, and the band intensities were quantified by ImageJ.
(§1) As the luciferase assay relied on the loss-of-activity of the luciferase-HaloTag fusion protein, we wanted to determine whether the decrease in luciferase activity resulted from the degradation of the entire fusion protein or perhaps simply inhibition of luciferase activity. We generated a stable Flp-In 293 cell line with a single integration site containing HA-EGFP-HaloTag fusion protein, and employed this cell line to perform kinetic studies with HyT13. […] Consistent with our previous observations, treatment of these cells with 1 μM of HyT13 for 24 hours reduced the mean fluorescence intensity of cells almost 7-fold. Together, these findings provide the first experimental evidence that hydrophobic tagging represents a viable strategy for the control of protein levels.
A general note: A western blot detects proteins with antibodies after separation by electrophoresis.

Data set [2] has as its target T2, EGFP-HaloTag (Rhodococcus rhodochrous, UniProt P0A3G2, C176G/H272F/K175M/Y273L).
T2 construct: The HaloTag protein was obtained from pHT2 vector (Promega); expressed in transfected cells
Kind of data set: Flow cytometry of intracellular GFP fluorescence in HeLa cells expressing EGFP-HaloTag. The format is cell-based. Conditions: 1 μM, 24 hours. How it is done:
Stable HeLa cells were raised by cotransfection of pCS2/EGFP-HaloTag and p-Puro containing the puromycin resistance gene. A clonal population of cells expressing EGFP-HaloTag was isolated. These cells were treated with vehicle or 1 μM HyT13 for 24 hours, washed with PBS and trypsinized. The cells were resuspended in FBS-free DMEM and the intracellular GFP level was measured by FACSCalibur (BD Biosciences).
as §1
A general note: In flow cytometry, cells or beads pass a laser one at a time.

Data set [3] concerns HEK293 or HeLa cells. The experiment in a line: Cell viability with Resazurin (alamarBlue). Conditions: up to 20 μM, 24 hours. The format is cell-based. How it is done: HEK293 or HeLa cells were treated with indicated concentrations of HyT13 for 24 hours. The oxidation-reduction indicator Resazurin (alamarBlue, Invitrogen) was employed to determine cell viability.
(Alamar Blue is a resazurin reagent that responds to reducing activity.)

Data set [4] relates to NIH-3T3 cells infected with HA-HaloTag(D106A)-H-RasG12V. The experiment in a line: Focus formation assay, HA-HaloTag(D106A)-H-RasG12V cells. The format is cell-based, mouse. The conditions noted are these: 1 μM, 1% FBS, day 6. How it is done:
One hundred thousand NIH-3T3 cells infected with HA-HaloTag-H-RasG12V and HA-HaloTag(D106A)-H-RasG12V were plated onto 10-cm cell culture plates in 10% FBS with DMEM. The next day, the media was replaced with 1% FBS media and the cells were administered either vehicle or 1 μM HyT13. The media and the drug were replaced every two days. On day 6, the foci were photographed and counted as the number of distinct foci per 1-cm^2 area.
We next explored the functional utility of HaloTag-based degradation of an oncogene by HyT13 both in cell culture and in mice. The small GTPase H-Ras is one of the most commonly mutated genes in cancer, with up to […] of cancers harboring activating mutations in this gene^35. Activating mutations, such as the H-RasG12V allele, lead to decreased dependence on extracellular mitogenic signals. […] When H-RasG12V expressing cells are grown in culture under low serum conditions they lose cell-to-cell contact inhibition and form distinct foci instead of growing as a cellular monolayer. Furthermore, these transformed cells are capable of tumor formation when injected into immuno-compromised nude mice^36,37. We investigated whether (1) HaloTag-H-RasG12V driven focus formation can be suppressed in NIH-3T3 cells and (2) HaloTag-H-RasG12V driven tumor burden in mice can be reduced by administration of HyT13. […]

Entries after “also recorded” stand apart in the source; their conditions may differ.

This is an account of results in patent US10145848B2, “Small-molecule hydrophobic tagging of fusion proteins and induced degradation of same” (YALE UNIVERSITY, priority 2010, dated 2018).

Regarding `O=C(CC12CC3CC(CC(C3)C1)C2)NCCOCCOCCCCCCCl` [HyT13, 2-((3r,5r,7r)-Adamantan-1-yl)-N-(2-(2-((6-chlorohexyl)oxy)ethoxy)ethyl)acetamide], in data set [1] (1 μM HyT13), the “time to 50% degradation” value was no more than 1.5 h and the “time to full degradation effect” value is no more than 8 h. Also, the “protein level after removal of compound” value in data set [1] (1 μM for 24 hours, then removed for 24 hours) was “recovered to half the starting levels”. Also, the “concentration at which maximal degradation effect is achieved” value in data set [1] (24 hours, immunoblotting) was found to be 100 nM. Besides, the DC50 in data set [1] (read-out: IC50 of fusion protein degradation, 24 hours, Flp-In 293 cells) turned out to be 21 nM. In data set [2], the “reduction of mean fluorescence intensity” value is recorded as roughly 7 fold. Besides, the cellular toxicity result in data set [3] is recorded as “No cellular toxicity was observed; also recorded: lack of noticeable HyT13 cytotoxicity; also recorded: exhibits no toxicity”. Also, the focus formation result in data set [4] is on record as “had formed many foci”.
